Results reported in US20250289789A1, “REVERSIBLE LYSINE COVALENT MODIFIERS OF CDK2 AND USES THEREOF” (Terremoto Biosciences, Inc., priority 2023, published 2025).
Where two headings read alike, the source gives them in different places.

Assays:
Assay type in all cases: cell-based
[1] = biological target: T1, CDK1-NanoLuc fusion with CCNB1 in 293T or 293 cells (Homo sapiens, UniProt P06493); experiment: NanoBRET Target Engagement (TE) Intracellular Kinase Assay, CDK1/CCNB1; settings: 2-hour incubation
T1 construct: host or cells: 293T (ATCC CRL-3216) or 293 (ATCC CRL-1573)
T1 sequence (P06493 whole entry, the tested form may be a part): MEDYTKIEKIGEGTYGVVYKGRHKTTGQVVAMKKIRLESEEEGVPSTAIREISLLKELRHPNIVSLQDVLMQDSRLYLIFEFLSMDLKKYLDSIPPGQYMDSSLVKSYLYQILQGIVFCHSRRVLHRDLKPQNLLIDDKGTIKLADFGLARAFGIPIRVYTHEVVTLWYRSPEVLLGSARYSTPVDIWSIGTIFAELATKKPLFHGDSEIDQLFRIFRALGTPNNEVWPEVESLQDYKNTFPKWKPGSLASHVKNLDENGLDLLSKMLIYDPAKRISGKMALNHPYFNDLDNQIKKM
T1 sequence (P14635 whole entry partner, the tested form may be a part): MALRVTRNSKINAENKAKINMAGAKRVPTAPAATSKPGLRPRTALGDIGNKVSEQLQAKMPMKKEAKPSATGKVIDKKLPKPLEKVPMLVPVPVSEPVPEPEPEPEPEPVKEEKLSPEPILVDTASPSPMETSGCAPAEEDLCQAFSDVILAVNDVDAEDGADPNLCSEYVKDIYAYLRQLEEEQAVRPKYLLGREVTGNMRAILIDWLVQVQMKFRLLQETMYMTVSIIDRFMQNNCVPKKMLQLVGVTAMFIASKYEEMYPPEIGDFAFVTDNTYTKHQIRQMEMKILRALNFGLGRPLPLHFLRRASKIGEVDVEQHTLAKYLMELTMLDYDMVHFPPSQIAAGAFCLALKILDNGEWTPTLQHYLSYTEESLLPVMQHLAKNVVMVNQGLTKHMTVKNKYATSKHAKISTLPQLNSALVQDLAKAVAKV
In short: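 293T or 293 cells co-transfected with CDK1-NanoLuc and CCNB1 vectors, incubated 24 h, then exposed to NanoBRET Tracer K-10 plus compound for 2 h at 37° C. BRET ratio (610/450 nm) normalized to DMSO; IC50 from four-parameter logistic fit.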

[2] = biological target: T2, CDK2-NanoLuc fusion with CCNE1 in 293T or 293 cells (Homo sapiens, UniProt P24941); experiment: NanoBRET Target Engagement (TE) Intracellular Kinase Assay, CDK2/CCNE1; settings: 2-hour incubation
T2 construct: host or cells: 293T (ATCC CRL-3216) or 293 (ATCC CRL-1573)

[3] = biological target: T3, CDK4-NanoLuc fusion with CCND1 in 293T or 293 cells (Homo sapiens, UniProt P11802); experiment: NanoBRET Target Engagement (TE) Intracellular Kinase Assay, CDK4/CCND1; settings: 2-hour incubation
T3 construct: host or cells: 293T (ATCC CRL-3216) or 293 (ATCC CRL-1573)
T3 sequence (P11802 whole entry, the tested form may be a part): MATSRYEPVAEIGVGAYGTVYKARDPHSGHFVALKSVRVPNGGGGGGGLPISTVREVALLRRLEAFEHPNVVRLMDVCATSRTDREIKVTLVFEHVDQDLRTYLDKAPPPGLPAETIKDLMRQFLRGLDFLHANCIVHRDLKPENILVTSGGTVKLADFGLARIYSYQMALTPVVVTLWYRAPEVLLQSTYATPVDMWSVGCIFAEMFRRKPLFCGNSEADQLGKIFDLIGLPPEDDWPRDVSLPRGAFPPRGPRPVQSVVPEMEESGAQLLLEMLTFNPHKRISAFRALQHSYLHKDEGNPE
T3 sequence (P24385 whole entry partner, the tested form may be a part): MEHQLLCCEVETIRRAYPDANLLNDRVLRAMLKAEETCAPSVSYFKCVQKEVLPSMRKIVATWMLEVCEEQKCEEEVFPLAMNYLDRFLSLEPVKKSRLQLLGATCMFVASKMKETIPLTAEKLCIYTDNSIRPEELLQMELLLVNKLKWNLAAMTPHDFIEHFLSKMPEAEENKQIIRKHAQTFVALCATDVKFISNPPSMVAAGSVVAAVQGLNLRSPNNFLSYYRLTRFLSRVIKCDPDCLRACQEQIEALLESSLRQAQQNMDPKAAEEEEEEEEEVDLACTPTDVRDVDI

[4] = test system: Phospho-Rb Ser807/811 in OVCAR3 cells; experiment: OVCAR3 Phospho-Rb Ser807/811 HTRF assay; settings: Homo sapiens, OVCAR3 cells, Phospho-Rb Ser807/811 HTRF, 1 hour incubation, read-out: pRb-OVCAR3 IC50
Experimental: Cells were trypsinized and resuspended in 1 mM hydroxyurea (Sigma; H8627), 90% RPMI and 10% fetal bovine serum. […] Dose response curve normalized to DMSO control was plotted using four-parameter logistic model for IC50 calculation.

[5] = NanoBRET TE intracellular kinase assay, read-out: NanoBRET-CDK1/B1 IC50
[6] = NanoBRET TE intracellular kinase assay, read-out: NanoBRET-CDK2/E1 IC50
[7] = NanoBRET TE intracellular kinase assay, read-out: NanoBRET-CDK4/D1 IC50

| Compound | IC50 [1, 5] [nM] | IC50 [2, 6] [nM] | IC50 [3, 7] [nM] | IC50 ([4]; OVCAR-3, 1 h) [nM] | IC50 ([1]; NanoBRET-CDK1/B1 IC50, NanoBRET TE intracellular kinase assay) [nM] | IC50 ([2]; NanoBRET-CDK2/E1 IC50, NanoBRET TE intracellular kinase assay) [nM] | IC50 ([3]; NanoBRET-CDK4/D1 IC50, NanoBRET TE intracellular kinase assay) [nM] | IC50 ([4]; OVCAR-3) [nM] |
| --- | --- | --- | --- | --- | --- | --- | --- | --- |
| CC(C)NC(=O)O[C@H]1C[C@@H](c2cc(NC(=O)COc3cccc(O)c3C=O)n[nH]2)C1 [Compound 114, (1s,3s)-3-(3-(2-(2-formyl-3-hydroxyphenoxy)acetamido)-1H-pyrazol-5-yl)cyclobutyl isopropylcarbamate] | 26.7 | 4.44 | > 10000 | 121 |  |  |  |  |
| COc1cc(O)c(C=O)c(OCC(=O)Nc2cc([C@H]3CC[C@@H](OC(=O)NC(C)(C)C)C3)[nH]n2)c1 [Compound 128, (1R,3S)-3-(3-(2-(2-formyl-3-hydroxy-5-methoxyphenoxy)acetamido)-1H-pyrazol-5-yl)cyclopentyl tert-butylcarbamate] | 5.09 | 2.42 | 961 | 34.8 |  |  |  |  |
| COc1cc(O)c(C=O)c(OCC(=O)Nc2cc([C@H]3CC[C@@H](OC(=O)N[C@H]4C[C@H]4F)C3)[nH]n2)c1 [Compound 132] | 10.8 | 3.39 | 2940 | 22 |  |  |  |  |
| COc1cc(O)c(C=O)c(OCC(=O)Nc2cc([C@H]3CC[C@@H](OC(=O)N(C)N(C)C)C3)[nH]n2)c1 [Compound 172, (1R,3S)-3-(3-(2-(2-formyl-3-hydroxy-5-methoxyphenoxy)acetamido)-1H-pyrazol-5-yl)cyclopentyl 1,2,2-trimethylhydrazine-1-carboxylate] | 25.2 | 3.95 | > 10000 | 132 |  |  |  |  |
| Cc1cc(O)c(C=O)c(OCC(=O)Nc2cc([C@H]3CC[C@@H](OC(=O)N4C5COCC4C5)C3)[nH]n2)c1 [Compound 199] | 19.9 | 3.76 | 6500 | 58.5 |  |  |  |  |
| COC[C@H](C)NC(=O)O[C@@H]1CC[C@H](c2cc(NC(=O)COc3cc(OC)cc(O)c3C=O)n[nH]2)C1 [Compound 200] | 8.83 | 5.07 | 8410 | 27.7 |  |  |  |  |
| COc1cc(O)c(C=O)c(OCC(=O)Nc2cc([C@H]3CC[C@@H](OC(=O)N4[C@H](C)COC[C@@H]4C)C3)[nH]n2)c1 [Compound 201] | 12.9 | 4.1 | 4680 | 28.4 |  |  |  |  |
| COc1cc(O)c(C=O)c(OCC(=O)Nc2cc([C@H]3CC[C@@H](OC(=O)NC[C@@H](C)OC)C3)[nH]n2)c1 [Compound 202] | 41.6 | 5.67 | > 10000 | 70.5 |  |  |  |  |
| COc1cc(O)c(C=O)c(OCC(=O)Nc2cc([C@H]3CC[C@@H](OC(=O)N4C[C@H]5C[C@@H]4CO5)C3)[nH]n2)c1 [Compound 203] | 18.6 | 7.37 | > 10000 | 60 |  |  |  |  |
| COc1cc(O)c(C=O)c(OCC(=O)Nc2cc([C@H]3CC[C@@H](OC(=O)N4C[C@@H]5C[C@H]4CO5)C3)[nH]n2)c1 [Compound 204] | 12.2 | 4.54 | > 9510 | 34.6 |  |  |  |  |
| COc1cc(O)c(C=O)c(OCC(=O)Nc2cc([C@H]3CC[C@@H](OC(=O)N4CCOCC45CC5)C3)[nH]n2)c1 [Compound 205] | 4.59 | 3.48 | 2040 | 26.3 |  |  |  |  |
| COc1cc(O)c(C=O)c(OCC(=O)Nc2cc([C@H]3CC[C@@H](OC(=O)N4CCOC[C@H]4C)C3)[nH]n2)c1 [Compound 206] | 5.62 | 2.46 | > 10000 | 27.4 |  |  |  |  |
| COc1cc(O)c(C=O)c(OCC(=O)Nc2cc([C@H]3CC[C@@H](OC(=O)N4C5CCC4COC5)C3)[nH]n2)c1 [Compound 207, (1R,3S)-3-{5-[2-(2-formyl-3-hydroxy-5-methoxyphenoxy)acetamido]-2H-pyrazol-3-yl}cyclopentyl 3-oxa-8-azabicyclo[3.2.1]octane-8-carboxylate] |  |  |  |  | 6.54 | 2.25 | 4130 | 25.7 |
| COc1cc(O)c(C=O)c(OCC(=O)Nc2cc([C@H]3CC[C@@H](OC(=O)NCCC#N)C3)[nH]n2)c1 [Compound 208] | 21.2 | 9.87 | 7910 | 41.8 |  |  |  |  |
| COCC1(NC(=O)O[C@@H]2CC[C@H](c3cc(NC(=O)COc4cc(OC)cc(O)c4C=O)n[nH]3)C2)CC1 [Compound 209] | 5.94 | 6.55 | 3870 | 28.7 |  |  |  |  |
| COCCOCCNC(=O)O[C@@H]1CC[C@H](c2cc(NC(=O)COc3cc(OC)cc(O)c3C=O)n[nH]2)C1 [Compound 210] | 26.3 | 6.9 | > 10000 | 68.5 |  |  |  |  |
| CCOc1cc(O)c(C=O)c(OCC(=O)Nc2cc([C@H]3CC[C@@H](OC(=O)N4CCC4(C)C)C3)[nH]n2)c1 [Compound 211, (1R,3S)-3-(3-(2-(5-ethoxy-2-formyl-3-hydroxyphenoxy)acetamido)-1H-pyrazol-5-yl)cyclopentyl 2,2-dimethylazetidine-1-carboxylate] | 9.01 | 2.68 | 2120 | 34.5 |  |  |  |  |
| COc1cc(O)c(C=O)c(OCC(=O)Nc2cc([C@H]3CC[C@@H](OC(=O)N4[C@@H](C)COC[C@@H]4C)C3)[nH]n2)c1 [Compound 212] | 6.31 | 2.98 | 1070 | 21.8 |  |  |  |  |
| COCCNC(=O)O[C@@H]1CC[C@H](c2cc(NC(=O)COc3cc(OC)cc(O)c3C=O)n[nH]2)C1 [Compound 213] | 30.1 | 4.72 | > 10000 | 35.6 |  |  |  |  |
| COc1cc(OC)c2c(c1C=O)C[C@H](C(=O)Nc1cc([C@H]3C[C@@H](OC(=O)NC(C)C)C3)[nH]n1)C2 [Compound 214] | 155 | 56.8 | > 3460 | 375 |  |  |  |  |
| COc1cc(O)c(C=O)c(OCC(=O)Nc2cc([C@H]3CC[C@@H](OC(=O)NC4(C#N)CC4)C3)[nH]n2)c1 [Compound 215] | 20.6 | 10.3 | > 6270 | 41.5 |  |  |  |  |
| C#C[C@H](C)NC(=O)O[C@@H]1CC[C@H](c2cc(NC(=O)COc3cc(OC)cc(O)c3C=O)n[nH]2)C1 [Compound 216] | 15 | 4.44 | 9910 | 64.6 |  |  |  |  |
| COc1cc(O)c(C=O)c(OCC(=O)Nc2cc([C@H]3CC[C@@H](OC(=O)NN4CCCC4)C3)[nH]n2)c1 [Compound 217] | 44.7 | 2.98 | > 10000 | 60.9 |  |  |  |  |
| C#CC1(NC(=O)O[C@@H]2CC[C@H](c3cc(NC(=O)COc4cc(OC)cc(O)c4C=O)n[nH]3)C2)CC1 [Compound 218] | 5.53 | 2.33 | 2900 | 18.2 |  |  |  |  |
| COc1cc(O)c(C=O)c(OCC(=O)Nc2cc([C@H]3CC[C@@H](OC(=O)N4C[C@@H]5CC[C@H]4C5)C3)[nH]n2)c1 [Compound 219] | 4.23 | 1.95 | 844 | 22.6 |  |  |  |  |
| COc1cc(O)c(C=O)c(OCC(=O)Nc2cc([C@H]3CC[C@@H](OC(=O)N4C5CCCC4C5)C3)[nH]n2)c1 [Compound 220] | 8.36 | 2.89 | 1460 | 32.1 |  |  |  |  |
| CCCNC(=O)O[C@@H]1CC[C@H](c2cc(NC(=O)COc3cc(OC)cc(O)c3C=O)n[nH]2)C1 [Compound 221] | 8.56 | 1.71 | 5250 | 24.1 |  |  |  |  |
